Measured values reported in publication PMC9027131, “Dual PI3K/Akt Inhibitors Bearing Coumarin-Thiazolidine Pharmacophores as Potential Apoptosis Inducers in MCF-7 Cells” (Pharmaceuticals, 2022).

Tests used:
MCF-7 cells [1] = experiment: MTT cytotoxicity assay in MCF-7 cells; type: cell-based, human; conditions: Homo sapiens, MCF7, 48 h, means ± sd, n = 3
Description: The in vitro anticancer activity of the designed coumarin-thiosemicarbazones and coumarin-thiazolidine-4-one hybrids against MCF-7 cells was tested using the MTT assay, and 5-fluorouracil (5-FU) was used as the reference drug. The tested compounds were used in different concentrations, and cell survival was determined after incubation for 48 h as reported. The cytotoxic activity is represented in Table 1 as IC50 (µM) values.
(§1) MCF-7 breast cancer cell line (ATCC® HTB-22™) plus non-tumorigenic epithelial cell line (MCF 10, ATCC® CRL-10317™) were supplied from VACSERA (Cairo, Egypt) and cultured in Dulbecco’s Modified Eagle Medium (Invitrogen-Life Technologies, Carlsbad, CA, USA) with 1% antibiotic solution (streptomycin–penicillin) plus 10% fetal bovine serum (Hyclone) in a 5% (v/v) humidified CO2 incubator at 37 °C.
Firstly, cells were kept in a humidified atmosphere (37 °C, 24 h), and then incubated with serial concentrations of the tested compounds. After 48 h, the medium was aspirated, and then cells were incubated with 5% MTT solution (M-5655; Sigma Aldrich, St. Louis, MO USA) (200 µL/well, 2 h), allowing the dye to metabolize into the colored insoluble formazan complex that was then dissolved in the appropriate solubilization solution (M-8910) (200 µL/well), for 30 min with gentle mixing at room temperature. The UV absorbance was measured using a microplate reader (570 nm), and cell viability was determined with respect to untreated control cells. […] The values were means ± sd; n = 3.

[2] = test system: MCF 10 non-tumorigenic epithelial cell line; experiment: MTT assay in non-cancerous epithelial cells (MCF 10); type: cell-based
Description: as §1
Firstly, cells were kept in a humidified atmosphere (37 °C, 24 h), and then incubated with serial concentrations of the tested compounds. After 48 h, the medium was aspirated, and then cells were incubated with 5% MTT solution (M-5655; Sigma Aldrich, St. Louis, MO USA) (200 µL/well, 2 h), allowing the dye to metabolize into the colored insoluble formazan complex that was then dissolved in the appropriate solubilization solution (M-8910) (200 µL/well), for 30 min with gentle mixing at room temperature. The UV absorbance was measured using a microplate reader (570 nm), and cell viability was determined with respect to untreated control cells.

Akt-1 = target: T1, Akt-1 (Homo sapiens, UniProt P31749); experiment: Akt Kinase Activity assay kit; type: biochemical; conditions: means ± sd, n = 3; read-out: IC50 (µM) Akt-1 Isoform
T1 construct: purchased Abcam ab139436
Excerpt: Accumulating evidence highlighted that PI3K signaling pathway upregulation is highly implicated in breast cancer development and disease progression as well as resistance to hormones and cytotoxic therapy. Therefore, it is essential to elucidate the effect of the novel compound, VIIb, on the PI3K/Akt signaling pathway by using in vitro PI3K class 1A enzyme inhibition assay conducted on PI3K-α and PI3K-γ isoforms as well as an Akt-1 enzyme inhibition assay. […] Furthermore, targeting the PI3K-γ isoform in breast cancer could contribute to enhancing the anti-tumor immunity.
The in vitro inhibition of PI3K and Akt kinase activities by VIIb was assessed using a PI3Kα (p110α/p85) assay kit (Catalog #79781; BPS Bioscience, Inc, San Diego, CA, USA), PI3Kγ (p110γ/PIK3R5) assay kit (Catalog #79803; BPS Bioscience, Inc, San Diego, CA, USA), and Akt Kinase Activity assay kit (ab139436; Abcam, Cambridge, UK) following the manufacturer’s instructions as described previously. The results were expressed as IC50 values using dose–response curves and linear regression equations. LY294002 compound was taken as the reference compound. The values were means ± sd; n = 3.

MCF-7 cells [3] = experiment: Cell cycle analysis by flow cytometry (propidium iodide); type: cell-based, human; conditions: MCF-7, treated at IC50, 48 h
Description: VIIb-treated cells were subjected to cell cycle phase distribution analysis as well as apoptosis rates determination by flow cytometric analysis in MCF-7 cells, as reported.
Control and VIIb-treated (IC50 µM, 48 h) MCF-7 cells were harvested and then subjected to cell cycle analysis by flow cytometry.
Cell cycle analysis and apoptosis rates following VIIb treatment were investigated using a Propidium Iodide Flow Cytometry Kit (ab139418; Abcam, Cambridge, UK) and Annexin V-FITC apoptosis kit (Catalog: K101-25; BioVision Research Products, San Francisco, CA, USA), respectively, following the manufacturer’s instructions as stated by a previous study.

caspase-9 = experiment: Cleaved caspase-9 level by ELISA in MCF-7 cells; type: cell-based, human; conditions: MCF-7, 48 h; control 2.712 ± 0.09; means ± sd, n = 3
Description: Apoptosis is a programmed cell death modality that includes an array of steps such as activation of caspases alongside endonucleases leading to DNA cleavage, eventually causing the formation of apoptotic bodies. Caspases are classified into effector caspases, such as caspase-3, -6, and -7, and initiator caspases, including either caspase-2, -8, and -10 (extrinsic pathway) or caspase-9 (intrinsic pathway).
The level of cleaved caspase-9 was assessed in both untreated/control MCF-7 cells and following VIIb treatment using DRG® Caspase-9 (human) ELISA (EIA-4860), following the manufacturer’s instructions (DRG International Inc., Springfield, NJ, USA). The data were means ± sd; n = 3.

T1 sequence (P31749 whole entry, species assumed, canonical isoform): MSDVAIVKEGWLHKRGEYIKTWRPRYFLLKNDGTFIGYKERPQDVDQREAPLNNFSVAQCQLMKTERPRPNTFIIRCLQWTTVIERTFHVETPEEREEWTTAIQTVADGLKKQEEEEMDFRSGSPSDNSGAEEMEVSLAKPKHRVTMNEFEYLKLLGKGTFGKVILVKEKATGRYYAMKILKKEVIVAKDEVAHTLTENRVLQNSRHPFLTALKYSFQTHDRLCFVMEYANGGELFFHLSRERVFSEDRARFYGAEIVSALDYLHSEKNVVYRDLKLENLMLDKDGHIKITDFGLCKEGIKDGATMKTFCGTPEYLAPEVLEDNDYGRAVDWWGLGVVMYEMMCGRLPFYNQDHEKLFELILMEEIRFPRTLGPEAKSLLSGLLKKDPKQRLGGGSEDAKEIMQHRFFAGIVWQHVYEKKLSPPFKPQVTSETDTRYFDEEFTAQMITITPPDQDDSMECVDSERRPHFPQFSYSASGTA

C/C(=N/N=C1/SCC(=O)N1C(=O)c1ccccc1)c1c(O)ccc2c(C)cc(=O)oc12 [VIIb]
IC50 (MCF-7 cells [1]): 1.03 ± 0.05 µM | IC50 ([2]; Homo sapiens, MCF10, MTT assay, non-cancerous epithelial cells, means ± sd, n = 3): 9.52 ± 0.6 µM | Selectivity Index MCF-10/MCF-7 ([2]; ratio of IC50 MCF-10 to IC50 MCF-7): 9.24 | IC50 (Akt-1): 2.93 ± 0.15 µM | DNA Content % Pre G1 (MCF-7 cells [3]; control 1.55): 35.25% | DNA Content % G2/M (MCF-7 cells [3]; control 9.71): 5.59% | DNA Content % S (MCF-7 cells [3]; control 36.58): 46.02% | DNA Content % G0/G1 (MCF-7 cells [3]; control 53.71): 48.39% | Caspase-9 Level (caspase-9): 21.61 ± 0.14 ng/mL
